The text below walks through data of PubChem BioAssay (NCI).

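1) Cells in 96-well plates. 2) Compound, 48 h, 5 concentrations. 3) Linear interpolation between surrounding doses. 4) Unreached endpoint = highest concentration. At the TGI there is no net growth.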

Some test systems named below: ACHN renal; EKVX NSCLC; HCC-2998 colon; M14 melanoma; MDA-N; NCI-H226 lung; PC-3 prostate; SF-295 CNS; U251 CNS; UACC-62 melanoma; BT-549 breast; HOP-92 NSCLC; HS 578T breast; NCI-H460 lung.
What all share (test): inhibition of tumour cell growth, NCI panel, 48 h

For `C=C(C)C#CC(O)(C(=O)OC1CCN(C)CC1)C(C)C` (configuration not stated), the TGI in the experiment on ACHN renal, in the experiment with EKVX NSCLC, with HCC-2998 colon, in the experiment on M14 melanoma, in the experiment with MDA-N and in the experiment with NCI-H226 lung was over 100 µM in each case. Also, the TGI in the experiment on PC-3 prostate, with SF-295 CNS, in the experiment with U251 CNS and with UACC-62 melanoma was over 100 µM each time.
Consider `C/C(=N/NC(=O)c1ccncc1)c1ccc(NC(=O)C(=O)Nn2c(=S)[nH]c3ccccc3c2=O)cc1`, for which the TGI in the experiment on ACHN renal, in the experiment on BT-549 breast, with EKVX NSCLC, with HCC-2998 colon, in the experiment with HOP-92 NSCLC and with HS 578T breast was over 100 µM each time. Besides, the TGI in the experiment on M14 melanoma, in the experiment on NCI-H226 lung, in the experiment with NCI-H460 lung, in the experiment with PC-3 prostate, with SF-295 CNS and in the experiment with U251 CNS was over 100 µM each time. In the experiment on UACC-62 melanoma, this compound registered a TGI of over 100 µM.
On to `Cc1c(/C=N/NC(=S)Nc2cccc(Cl)c2)c(=O)n(-c2ccccc2)n1C`, for which the TGI with ACHN renal is 37.5 µM; with BT-549 breast it was 75.1 µM; in the experiment with EKVX NSCLC, 33.3 µM; in the experiment on HCC-2998 colon, over 100 µM; in the experiment on HOP-92 NSCLC, 31.7 µM; with HS 578T breast, 33.6 µM. Besides, the TGI with M14 melanoma is 40.1 µM; in the experiment on NCI-H226 lung it was 33.9 µM; in the experiment with NCI-H460 lung it was 21.8 µM; with PC-3 prostate it was over 100 µM; in the experiment on SF-295 CNS it was 28 µM; in the experiment with U251 CNS, 44.6 µM. In the experiment with UACC-62 melanoma, the TGI is over 100 µM.
Turning to `CNC(=O)CCNC(=O)CCC(=O)N(C)C`, the TGI in the experiment on ACHN renal, in the experiment on HCC-2998 colon, with M14 melanoma, in the experiment with MDA-N, with NCI-H460 lung and in the experiment on PC-3 prostate was over 100 µM each time. Further, the TGI in the experiment on SF-295 CNS, in the experiment with U251 CNS and in the experiment on UACC-62 melanoma was over 100 µM in each case.
Regarding `CCN(CC)CCNc1ccc2ncn3c4c(OC)ccc(OC)c4c(=O)c1c23`, the TGI in the experiment with ACHN renal is over 100 µM; in the experiment with EKVX NSCLC, 35.6 µM; in the experiment on HCC-2998 colon, 31 µM; with HOP-92 NSCLC, 31.2 µM; with M14 melanoma, 34.4 µM; in the experiment with MDA-N, 25.4 µM. Also, the TGI in the experiment with NCI-H226 lung is over 100 µM; with NCI-H460 lung, 31.3 µM; in the experiment on SF-295 CNS, 29.7 µM; with U251 CNS, 35.6 µM; in the experiment on UACC-62 melanoma, 57.5 µM.
With `CC1C2=C(CC(C)(C)CC2=O)NC2=C1C(=O)CC(C)(C)C2`, the TGI in the experiment on ACHN renal, with BT-549 breast, in the experiment with EKVX NSCLC, in the experiment on HCC-2998 colon, with HOP-92 NSCLC and in the experiment with HS 578T breast was over 100 µM throughout. Besides, the TGI in the experiment on M14 melanoma, in the experiment on NCI-H226 lung, in the experiment with NCI-H460 lung, in the experiment on PC-3 prostate, with U251 CNS and with UACC-62 melanoma was over 100 µM throughout.
As for `Clc1cc(OCc2nn3c(Cc4ccccc4)nnc3s2)ccc1OCc1nn2c(Cc3ccccc3)nnc2s1`, the TGI was over 100 µM in the experiment with ACHN renal; over 100 µM with BT-549 breast; 66.2 µM with EKVX NSCLC; over 100 µM in the experiment on HCC-2998 colon; 46.5 µM in the experiment with HOP-92 NSCLC; over 100 µM in the experiment with HS 578T breast. In addition, the TGI in the experiment on M14 melanoma is over 100 µM; in the experiment with NCI-H226 lung, over 100 µM; with NCI-H460 lung it was over 100 µM; in the experiment on PC-3 prostate, over 100 µM; in the experiment on SF-295 CNS it was 63.9 µM; in the experiment on U251 CNS, 51.5 µM. The TGI in the experiment on UACC-62 melanoma is over 100 µM.
As to `O=S(=O)(C(=Ic1ccccc1)S(=O)(=O)C(F)(F)C(F)(F)C(F)(F)C(F)(F)F)C(F)(F)C(F)(F)C(F)(F)C(F)(F)F`, the TGI came to 19.3 µM with ACHN renal; 28.5 µM in the experiment with BT-549 breast; 37.1 µM in the experiment on EKVX NSCLC; 40.4 µM in the experiment with HCC-2998 colon; 23.1 µM in the experiment on HOP-92 NSCLC; 56.9 µM in the experiment on HS 578T breast. Also, the TGI in the experiment with M14 melanoma amounted to 28.2 µM; with NCI-H226 lung, 15 µM; with NCI-H460 lung, 32.2 µM; with PC-3 prostate, 31.6 µM; in the experiment with SF-295 CNS it was 30.6 µM; in the experiment with U251 CNS, 29.5 µM. The same compound registered a TGI with UACC-62 melanoma of 33.4 µM.
Turning to `Cc1ccc(N/C(Sc2ccccc2)=C(/C(Cl)=C(Cl)Cl)[N+](=O)[O-])c(C)c1`, the TGI in the experiment on ACHN renal was over 100 µM; with BT-549 breast, 29.1 µM; in the experiment with EKVX NSCLC, 65.1 µM; in the experiment with HCC-2998 colon, 36 µM; in the experiment on HOP-92 NSCLC, 45.8 µM; in the experiment with HS 578T breast, over 100 µM. For the same compound, the TGI in the experiment on M14 melanoma came to 59.7 µM; in the experiment with NCI-H226 lung, 55.4 µM; in the experiment with NCI-H460 lung, 32.7 µM; in the experiment on PC-3 prostate, 36.1 µM; with SF-295 CNS, 47 µM; with U251 CNS it was 26.7 µM. In the experiment on UACC-62 melanoma, this compound gave a TGI of 62.2 µM.
